Laboratory results from ChEMBL document CHEMBL4477222, “Discovery of Novel Thiophene-Based, Thumb Pocket 2 Allosteric Inhibitors of the Hepatitis C NS5B Polymerase with Improved Potency and Physicochemical Profiles” (J Med Chem, 2016).
≈ marks a conversion by molar mass, not a printed value. Calls of active or inactive are those of the source. No cut-off for these calls is given here.

How the values were obtained:
[1] = tested on: NS3 protease (Hepacivirus C), C1KIQ2 [A156T]; assay: Inhibition of telaprevir-resistant HCV NS3 protease A156T mutant; details: Hepacivirus hominis
[2] = AUC (0 to infinity) in monkey at 1 mg/kg, iv through bolus administration; format: ADME, organism-based, Macaca mulatta; parameters: dose 1 mg/kg, route intravenous, time infinity; details: rhesus monkey, in vivo
[3] = tested on: NS3 (Hepatitis C virus), A3EZJ3 [R155K,V36M]; assay: Inhibition of telaprevir-resistant HCV NS3 protease V36M/R155K double mutant; details: Hepacivirus hominis
[4] = tested on: Nonstructural protein 5A (Hepatitis C virus), Q5L478 [Y93C]; assay: Inhibition of BMS-790052-resistant HCV genotype 1a NS5A Y93C mutant; details: Hepatitis C virus subtype 1a
[5] = Ratio of drug level in liver to lungs in Sprague-Dawley rat at 10 mg/kg, po; format: ADME, organism-based, Liver/Lung; details: in vivo
[6] = Metabolic stability in monkey liver microsomal S9 fraction assessed as compound remaining at 1 uM after 2 hrs in presence of NADPH; format: ADME, subcellular, Macaca mulatta; details: rhesus monkey, read-out: Stability
[7] = Volume of distribution in steady state in dog at 1 mg/kg, iv through bolus administration; format: ADME, organism-based, Canis lupus familiaris; details: in vivo, read-out: Vdss
[8] = target: RNA-directed RNA polymerase (Hepacivirus hominis, UniProt O39930, M423V); assay: Inhibition of HCV genotype 1a NS5B M423V mutant; parameters: species or system Hepatitis C virus subtype 1a
[9] = tested on: Hepatitis C virus subtype 1b; assay: Inhibition of HCV genotype 1b NS5B assessed as suppression of sub-genomic RNA levels at 0.5 times IC50 after 96 hrs in presence of human interferon alpha2a and ribavirin by luciferase reporter gene assay
[10] = Drug uptake in Sprague-Dawley rat liver at 10 mg/kg, po administered as single dose; format: ADME, organism-based; details: in vivo
[11] = Metabolic stability in rat liver microsomal S9 fraction assessed as compound remaining at 1 uM after 2 hrs in presence of NADPH; format: ADME, subcellular; details: read-out: Stability
[12] = Metabolic stability in rat liver microsomal S9 fraction assessed as compound remaining at 1 uM after 2 hrs in presence of NADPH/UDPGA; format: ADME, subcellular; details: read-out: Stability
[13] = Permeability from apical to basolateral side in human Caco2 cells; format: ADME, cell-based; details: Caco-2, read-out: permeability
[14] = Drug uptake in Sprague-Dawley rat plasma at 10 mg/kg, po administered as single dose; format: ADME, organism-based; details: in vivo
[15] = Ratio of drug level in liver to heart in Sprague-Dawley rat at 10 mg/kg, po; format: ADME, organism-based; details: in vivo
[16] = Metabolic stability in dog liver microsomal S9 fraction assessed as compound remaining at 1 uM after 2 hrs in presence of NADPH; format: ADME, subcellular, Canis lupus familiaris; details: read-out: Stability
[17] = tested on: NS3 protease (Hepacivirus C), C1KIQ2 [V36M]; assay: Inhibition of telaprevir-resistant HCV NS3 protease V36M mutant; details: Hepacivirus hominis
[18] = tested on: Hepatitis C virus subtype 1b; assay: Inhibition of HCV genotype 1b NS5B assessed as suppression of sub-genomic RNA levels after 96 hrs in presence of telaprevir by luciferase reporter gene assay
[19] = AUC (0 to infinity) in Fischer 344 rat at 3 mg/kg, po; format: ADME, organism-based; parameters: dose 3 mg/kg, route oral, time infinity; details: in vivo
[20] = Ratio of drug level in liver to kidney in Sprague-Dawley rat at 10 mg/kg, po; format: ADME, organism-based; details: in vivo
[21] = Metabolic stability in rat hepatocytes assessed as compound remaining at 10 uM after 2 hrs; format: ADME, cell-based, Hepatocyte; details: read-out: Stability
Cytochrome P450 3A4 [22] = target: T1, Cytochrome P450 3A4 (Homo sapiens, UniProt P08684); assay: Induction of CYP3A4 (unknown origin) in hepatocytes; format: ADME, cell-based
[23] = tested on: Nonstructural protein 5A (Hepatitis C virus), Q5L478 [UNDEFINED MUTATION]; assay: Inhibition of BMS-790052-resistant HCV genotype 1a NS5A Q30H mutant; details: Hepatitis C virus subtype 1a
[24] = Volume of distribution at steady state in Sprague-Dawley rat at 1 mg/kg, iv through bolus administration; format: ADME, organism-based; details: in vivo, read-out: Vdss
[25] = Metabolic stability in human liver microsomal S9 fraction assessed as compound remaining at 1 uM after 2 hrs in presence of NADPH/UDPGA; format: ADME, subcellular; details: read-out: Stability
Cytochrome P450 3A4 [26] = target: T1, Cytochrome P450 3A4; assay: Drug metabolism in human liver S9 fraction assessed as CYP3A4-mediated metabolite formation after 1 hr; format: ADME, subcellular; details: s9, 1 h
[27] = Metabolic stability in monkey hepatocytes assessed as compound remaining at 10 uM after 2 hrs; format: ADME, cell-based, Macaca mulatta, Hepatocyte; details: rhesus monkey, read-out: Stability
[28] = Half life in monkey at 1 mg/kg, iv through bolus administration; format: ADME, organism-based, Macaca mulatta; details: rhesus monkey, in vivo
[29] = tested on: NS3 protease (Hepacivirus C), C1KIQ2 [R155K]; assay: Inhibition of telaprevir-resistant HCV NS3 protease R155K mutant; details: Hepacivirus hominis
[30] = tested on: Nonstructural protein 5A (Hepatitis C virus), Q5L478 [UNDEFINED MUTATION]; assay: Inhibition of BMS-790052-resistant HCV genotype 1a NS5A Q30R mutant; details: Hepatitis C virus subtype 1a
[31] = Drug excretion in rat feces; format: ADME; details: in vivo
[32] = Cmax in Sprague-Dawley rat at 3 mg/kg, po; format: ADME, organism-based; parameters: dose 3 mg/kg, route oral; details: in vivo
[33] = Half life in dog at 1 mg/kg, iv through bolus administration; format: ADME, organism-based, Canis lupus familiaris; details: in vivo
[34] = tested on: Nonstructural protein 5A (Hepatitis C virus), Q5L478 [UNDEFINED MUTATION]; assay: Inhibition of BMS-790052-resistant HCV genotype 1a NS5A M28T mutant; details: Hepatitis C virus subtype 1a
[35] = Protein binding in monkey plasma at 1 uM; format: ADME, cell-free, Macaca mulatta; details: rhesus monkey, read-out: PPB (converted)
[36] = Cmax in Fischer 344 rat at 3 mg/kg, po; format: ADME, organism-based; parameters: dose 3 mg/kg, route oral; details: in vivo
[37] = tested on: NS3 protease (Hepacivirus C), C1KIQ2 [T54A]; assay: Inhibition of telaprevir-resistant HCV NS3 protease T54A mutant; details: Hepacivirus hominis
Hepatocyte = assay: Change in CYP1A2 mRNA levels in hepatocytes (unknown origin); format: ADME, cell-based
[38] = Efflux ratio of permeability from basolateral to apical side over apical to basolateral side in human Caco2 cells; format: ADME, cell-based; details: Caco-2
[39] = Metabolic stability in dog hepatocytes assessed as compound remaining at 10 uM after 2 hrs; format: ADME, cell-based, Canis lupus familiaris, Hepatocyte; details: read-out: Stability
[40] = Metabolic stability in dog liver microsomal S9 fraction assessed as compound remaining at 1 uM after 2 hrs in presence of NADPH/UDPGA; format: ADME, subcellular, Canis lupus familiaris; details: read-out: Stability
[41] = tested on: Nonstructural protein 5A (Hepatitis C virus), Q5L478 [UNDEFINED MUTATION]; assay: Inhibition of BMS-790052-resistant HCV genotype 1a NS5A P32L mutant; details: Hepatitis C virus subtype 1a
[42] = Chemical stability of compound under long term storage in solution; format: physicochemical
[43] = Protein binding in human plasma at 1 uM; format: ADME, cell-free; details: read-out: PPB (converted)
[44] = Half life in Sprague-Dawley rat at 3 mg/kg, po; format: ADME, organism-based; details: in vivo
Nonstructural protein 5A = Nonstructural protein 5A (Hepatitis C virus, UniProt Q5L478); assay: Inhibition of HCV genotype 2a NS5A; parameters: species or system Hepatitis C virus subtype 2a
Cytochrome P450 2E1 = Cytochrome P450 2E1 (Homo sapiens, UniProt P05181); assay: Inhibition of CYP2E1 (unknown origin); format: ADME
[45] = Solubility of the compound in potassium phosphate buffer at pH 7; format: physicochemical
[46] = Half life in Fischer 344 rat at 1 mg/kg, iv through bolus administration; format: ADME, organism-based; details: in vivo
[47] = Half life in Fischer 344 rat at 3 mg/kg; format: ADME, organism-based; details: in vivo
[48] = Oral bioavailability in dog at 3 mg/kg; format: ADME, organism-based, Canis lupus familiaris; details: in vivo
[49] = AUC (0 to infinity) in Fischer 344 rat at 1 mg/kg, iv through bolus administration; format: ADME, organism-based; parameters: dose 1 mg/kg, time infinity, route intravenous; details: in vivo
[50] = Clearance in monkey at 1 mg/kg, iv through bolus administration; format: ADME, organism-based, Macaca mulatta; details: rhesus monkey, in vivo

SMILES: CC(C)(C)C#Cc1cc(N(CC(=O)N2CCOCC2)C(=O)[C@H]2CC[C@H](C)CC2)c(C(=O)O)s1
- inhibition [1]: Active
- AUC(0-inf) [2]: 1730 ng·h/mL
- inhibition [3]: Active
- inhibition [4]: Active
- Ratio [5]: 10
- remaining at 2 h, 1 µM [6]: 19%
- Vd [7]: 1.57 L/kg
- EC50 [8]: 0.12 µM
- inhibition [9]: Active
- Drug uptake [10]: Active
- remaining at 2 h, 1 µM [11]: 99%
- remaining at 2 h, 1 µM [12]: 79%
- Papp A→B [13]: 0.7 ×10⁻⁶ cm/s
- Drug uptake [14]: Active
- Ratio [15]: 10
- remaining at 2 h, 1 µM [16]: 82%
- inhibition [17]: Active
- inhibition [18]: Active
- AUC(0-inf) [19]: 310 ng·h/mL
- Ratio [20]: 10
- remaining at 2 h, 10 µM [21]: 100%
- Activity (Cytochrome P450 3A4 [22]): Not Active
- inhibition [23]: Active
- Vd [24]: 1.55 L/kg
- remaining at 2 h, 1 µM [25]: 73%
- Drug metabolism (Cytochrome P450 3A4 [26]): < 5%
- remaining at 2 h, 10 µM [27]: 30%
- half-life [28]: 2.2 h
- inhibition [29]: Active
- inhibition [30]: Active
- Drug excretion [31]: Metabolite_Detected
- Cmax [32]: 1730 ng/mL
- half-life [33]: 9.8 h
- inhibition [34]: Active
- fraction unbound at 1 µM [35]: 0.023
- Cmax [36]: 240 ng/mL
- inhibition [37]: Active
- Activity (Hepatocyte): Non-Toxic
- efflux ratio [38]: 14
- remaining at 2 h, 10 µM [39]: 70%
- remaining at 2 h, 1 µM [40]: 82%
- inhibition [41]: Active
- Stability [42]: Stable
- fraction unbound at 1 µM [43]: 0.014
- half-life [44]: 3.04 h
- EC50 (Nonstructural protein 5A): 4.8 µM
- IC50 (Cytochrome P450 2E1): 14 µM
- solubility [45]: 1800 µg/mL (≈ 3.79 mM)
- half-life [46]: 1.67 h
- half-life [47]: 2.1 h
- bioavailability [48]: 57.3%
- AUC(0-inf) [49]: 1580 ng·h/mL
- clearance [50]: 9.9 mL/min/kg
